Experimental data taken from article PMC9458453, “What is a supercoiling-sensitive gene? Insights from topoisomerase I inhibition in the Gram-negative bacterium Dickeya dadantii” (Nucleic Acids Research, 2022).

Key:
topoisomerase I (topoI) [1] = target: T1, topoisomerase I (topoI) (Dickeya dadantii, UniProt E0SBX6); experiment: pUC18 plasmid relaxation assay on agarose gel with purified topoI; assay type: biochemical
T1 construct: gene topA; N-terminally 6xhis-tagged topoisomerase I

topoisomerase I (topoI) [2] = target: T2, topoisomerase I (topoI) (Escherichia coli, UniProt P06612); experiment: plasmid relaxation assay on agarose gel with purified commercial topoI; assay type: biochemical
T2 construct: gene topA; commercial topoI (NEB)
T2 sequence (P06612 whole entry): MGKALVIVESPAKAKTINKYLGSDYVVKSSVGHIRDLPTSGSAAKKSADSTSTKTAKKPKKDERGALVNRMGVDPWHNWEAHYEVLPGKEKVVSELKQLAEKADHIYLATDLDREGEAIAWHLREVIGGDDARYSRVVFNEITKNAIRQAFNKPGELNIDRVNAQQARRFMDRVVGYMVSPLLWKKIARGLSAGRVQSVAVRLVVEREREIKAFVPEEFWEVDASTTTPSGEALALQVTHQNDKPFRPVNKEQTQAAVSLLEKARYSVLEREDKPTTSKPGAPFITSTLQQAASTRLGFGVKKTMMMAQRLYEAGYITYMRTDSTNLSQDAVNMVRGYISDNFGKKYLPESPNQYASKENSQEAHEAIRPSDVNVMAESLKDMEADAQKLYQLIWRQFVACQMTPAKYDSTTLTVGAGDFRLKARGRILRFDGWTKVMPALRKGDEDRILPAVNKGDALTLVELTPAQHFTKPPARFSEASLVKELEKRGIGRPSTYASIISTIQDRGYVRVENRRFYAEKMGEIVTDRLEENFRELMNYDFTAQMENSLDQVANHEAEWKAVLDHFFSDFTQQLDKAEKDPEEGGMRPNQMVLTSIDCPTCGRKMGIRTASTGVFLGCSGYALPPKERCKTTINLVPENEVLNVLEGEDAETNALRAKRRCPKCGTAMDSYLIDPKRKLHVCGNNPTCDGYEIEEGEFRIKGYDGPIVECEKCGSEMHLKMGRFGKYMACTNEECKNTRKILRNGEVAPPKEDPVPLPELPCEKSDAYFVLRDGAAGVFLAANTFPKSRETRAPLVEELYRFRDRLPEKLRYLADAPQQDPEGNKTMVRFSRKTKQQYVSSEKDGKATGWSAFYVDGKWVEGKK

T1 sequence (E0SBX6 entry or part of it): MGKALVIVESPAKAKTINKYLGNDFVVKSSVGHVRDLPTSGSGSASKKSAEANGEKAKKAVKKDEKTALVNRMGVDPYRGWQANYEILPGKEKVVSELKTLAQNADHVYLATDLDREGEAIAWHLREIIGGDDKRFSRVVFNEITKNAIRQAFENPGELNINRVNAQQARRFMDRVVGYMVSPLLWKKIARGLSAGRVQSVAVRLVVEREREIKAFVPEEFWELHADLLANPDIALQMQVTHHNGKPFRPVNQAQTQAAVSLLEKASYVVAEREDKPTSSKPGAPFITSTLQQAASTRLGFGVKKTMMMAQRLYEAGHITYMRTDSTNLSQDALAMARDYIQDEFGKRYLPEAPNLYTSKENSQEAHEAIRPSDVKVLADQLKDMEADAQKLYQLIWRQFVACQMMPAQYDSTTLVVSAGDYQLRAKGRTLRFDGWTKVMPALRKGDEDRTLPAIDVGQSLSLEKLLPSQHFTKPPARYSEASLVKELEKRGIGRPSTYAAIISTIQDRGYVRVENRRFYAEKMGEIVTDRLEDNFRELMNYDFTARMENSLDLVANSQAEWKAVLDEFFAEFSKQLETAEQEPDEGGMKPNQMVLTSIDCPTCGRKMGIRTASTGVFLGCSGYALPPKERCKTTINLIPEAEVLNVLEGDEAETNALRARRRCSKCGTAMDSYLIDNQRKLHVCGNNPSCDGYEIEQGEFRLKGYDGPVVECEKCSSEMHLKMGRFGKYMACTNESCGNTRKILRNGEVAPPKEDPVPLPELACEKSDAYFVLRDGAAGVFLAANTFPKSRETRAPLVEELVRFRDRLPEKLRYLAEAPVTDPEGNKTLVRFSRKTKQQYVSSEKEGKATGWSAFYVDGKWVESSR

## CNCCc1cc2c(c3c1ccc1cc4c(cc13)OCO4)OCO2 [SCN, seconeolitsine]
Topoisomerase I (topoI) [1]
  IC50: 4 µM
Topoisomerase I (topoI) [2]
  IC50: ~7 µM
